Assay results taken from ChEMBL document CHEMBL2046331, “Lead optimization of a sulfonylurea-based piperazine pyridazinone series of glucan synthase inhibitors” (Bioorg Med Chem Lett, 2012).
Values after ≈ are worked out from the molar mass of the structure shown. Active and inactive are the calls of the source. The rule behind the calls is not given here.

Key:
Beta-1,3-glucan synthase = target: T1, Beta-1,3-glucan synthase (Candida albicans, UniProt O13383); assay: Inhibition of glucan synthase in Candida albicans BWP17 membrane; type: cell membranes
T1 sequence (O13383 whole entry): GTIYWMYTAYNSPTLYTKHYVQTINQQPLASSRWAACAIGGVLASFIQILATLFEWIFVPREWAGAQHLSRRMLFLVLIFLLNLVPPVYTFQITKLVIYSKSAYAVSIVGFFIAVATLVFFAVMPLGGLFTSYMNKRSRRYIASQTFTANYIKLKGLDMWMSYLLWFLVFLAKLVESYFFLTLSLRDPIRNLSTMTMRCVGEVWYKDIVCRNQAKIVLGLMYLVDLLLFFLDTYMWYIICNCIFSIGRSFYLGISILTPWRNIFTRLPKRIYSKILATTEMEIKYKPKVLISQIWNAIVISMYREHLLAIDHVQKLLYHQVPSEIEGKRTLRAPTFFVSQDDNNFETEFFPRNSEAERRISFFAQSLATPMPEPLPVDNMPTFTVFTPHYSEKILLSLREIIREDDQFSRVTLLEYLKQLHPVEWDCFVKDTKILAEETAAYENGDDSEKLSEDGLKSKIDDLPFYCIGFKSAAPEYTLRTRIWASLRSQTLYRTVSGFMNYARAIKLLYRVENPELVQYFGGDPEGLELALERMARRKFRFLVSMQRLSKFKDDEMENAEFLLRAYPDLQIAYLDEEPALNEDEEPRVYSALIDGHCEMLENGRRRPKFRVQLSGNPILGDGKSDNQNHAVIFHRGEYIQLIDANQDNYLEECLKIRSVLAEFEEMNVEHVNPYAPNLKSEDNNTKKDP

Nakaseomyces glabratus = assay: Antifungal activity against Candida glabrata C624 by broth dilution method; type: functional; settings: read-out: MIC100
Candida albicans [1] = assay: Antifungal activity against Candida albicans C693 by broth dilution method; type: functional; settings: read-out: MIC100
Candida albicans [2] = assay: Antifungal activity against Candida albicans C43 by broth dilution method; type: functional; settings: read-out: MIC100
Candida albicans [3] = assay: Antifungal activity against Candida albicans C375 by broth dilution method; type: functional; settings: read-out: MIC100
Aspergillus fumigatus = assay: Antifungal activity against Aspergillus fumigatus ND158 by broth dilution method; type: functional; settings: read-out: MEC
[4] = Clearance in human hepatocytes assessed per million cells; type: ADME, cell-based, Hepatocyte; settings: read-out: CLH
[5] = AUC (0 to 6 hrs) in rat at 10 mg/kg, po; type: ADME, organism-based; design: time < 6 hr, dose 10 mg/kg, route oral; settings: plasma
Candida albicans [6] = assay: Antifungal activity against Candida albicans C43 by broth dilution method in presence of 25% human serum; type: functional; settings: read-out: MIC100
[7] = Clearance in rat hepatocytes assessed per million cells; type: ADME, cell-based, Hepatocyte; settings: read-out: CLH
Candida albicans [8] = assay: Antifungal activity against Candida albicans C43 systemically infected in mouse assessed as reduction in fungal burden in kidney at 100 mg/kg, ip administered daily for 4 days relative to vehicle treated control; type: functional, organism-based; design: dose 100 mg/kg
Candida albicans [9] = assay: Antifungal activity against Candida albicans C43 systemically infected in mouse assessed as reduction in fungal burden in kidney at 100 mg/kg, ip administered daily for 4 days relative to caspofungin; type: functional, organism-based; design: dose 100 mg/kg

| Structure (SMILES) | IC50 (Beta-1,3-glucan synthase) | MIC (Nakaseomyces glabratus) | MIC (Candida albicans [1]) | MIC (Candida albicans [2]) | MIC (Candida albicans [3]) | hepatocyte CLint [4] | AUC(0-t) at 6 h [5] | MIC (Candida albicans [6]) | hepatocyte CLint [7] | minimal effective concentration (Aspergillus fumigatus) | Activity (Candida albicans [8]) | Activity (Candida albicans [9]) |
| --- | --- | --- | --- | --- | --- | --- | --- | --- | --- | --- | --- | --- |
| Cc1cc(CNS(=O)(=O)N2CCN(/C(C=N)=C(\OCC3(C)CC3)C(=O)Nc3cccc(Cl)c3)CC2)ccc1N | 108 nM | 0.52 µg/mL (≈ 0.904 µM) | 0.26 µg/mL (≈ 0.452 µM) | 0.52 µg/mL (≈ 0.904 µM) | 2.08 µg/mL (≈ 3.62 µM) | 13.4 µL/min/1e6 cells | 900 ng·h/mL |  |  | 2.08 µg/mL |  |  |
| CC1(CO/C(C(=O)Nc2cccc(Cl)c2)=C(/C=N)N2CCN(S(=O)(=O)NCc3ccc(N)c(F)c3)CC2)CC1 | 111 nM | 0.13 µg/mL (≈ 0.224 µM) | 0.06 µg/mL (≈ 0.104 µM) | 0.13 µg/mL (≈ 0.224 µM) | 0.52 µg/mL (≈ 0.898 µM) |  |  | 1.04 µg/mL | 12.7 µL/min/1e6 cells | 1.04 µg/mL |  |  |
| COc1ccc(CNS(=O)(=O)N2CCN(/C(C=N)=C(\OCC3(C)CC3)C(=O)Nc3cccc(Cl)c3)CC2)cc1OC | 297 nM | 0.06 µg/mL (≈ 0.099 µM) | 0.26 µg/mL (≈ 0.429 µM) |  |  |  |  |  |  |  |  |  |
| COc1ccc(CNS(=O)(=O)N2CCN(/C(C=N)=C(\OCC3(C)CC3)C(=O)Nc3cccc(Cl)c3)CC2)cc1N | 237 nM | 0.52 µg/mL (≈ 0.88 µM) | 0.26 µg/mL (≈ 0.44 µM) | 0.52 µg/mL (≈ 0.88 µM) | 4.17 µg/mL (≈ 7.05 µM) |  | 440 ng·h/mL | 2.08 µg/mL | 15 µL/min/1e6 cells | 4.17 µg/mL |  |  |
| CC1(CO/C(C(=O)Nc2cccc(Cl)c2)=C(/C=N)N2CCN(S(=O)(=O)NCc3nc4cc(Cl)ccc4o3)CC2)CC1 | 1300 nM | 0.52 µg/mL (≈ 0.837 µM) | 2.08 µg/mL (≈ 3.35 µM) |  |  |  |  |  |  |  |  |  |
| Cc1nc2ccc(CNS(=O)(=O)N3CCN(/C(C=N)=C(\OCC4(C)CC4)C(=O)Nc4cccc(Cl)c4)CC3)cc2s1 | 97.2 nM | 0.06 µg/mL (≈ 0.0972 µM) | 0.52 µg/mL (≈ 0.843 µM) |  |  |  |  |  |  |  |  |  |
| Cc1ccc(CNS(=O)(=O)N2CCN(/C(C=N)=C(\OCC3(C)CC3)C(=O)Nc3cccc(Cl)c3)CC2)cc1N | 125 nM | 0.26 µg/mL (≈ 0.452 µM) | 0.26 µg/mL (≈ 0.452 µM) | 0.52 µg/mL (≈ 0.904 µM) | 2.08 µg/mL (≈ 3.62 µM) | 19.6 µL/min/1e6 cells | 1410 ng·h/mL |  |  | 1.04 µg/mL |  |  |
| CC1(CO/C(C(=O)Nc2cccc(Cl)c2)=C(/C=N)N2CCN(S(=O)(=O)NCc3nc4ccccc4s3)CC2)CC1 | 398 nM | 0.26 µg/mL (≈ 0.431 µM) | 0.26 µg/mL (≈ 0.431 µM) |  |  |  |  |  |  |  |  |  |
| CC(NS(=O)(=O)N1CCN(/C(C=N)=C(\OCC2(C)CC2)C(=O)Nc2cccc(Cl)c2)CC1)c1cccc(N)c1 (stereo not drawn) | 522 nM | 1.04 µg/mL (≈ 1.81 µM) | 1.04 µg/mL (≈ 1.81 µM) | 4.17 µg/mL (≈ 7.25 µM) | 8.35 µg/mL (≈ 14.5 µM) |  | 1300 ng·h/mL |  |  | 16.7 µg/mL |  |  |
| CC1(CO/C(C(=O)Nc2cccc(Cl)c2)=C(/C=N)N2CCN(S(=O)(=O)NCc3ccc(F)c(N)c3)CC2)CC1 | 297 nM | 0.52 µg/mL (≈ 0.898 µM) | 0.52 µg/mL (≈ 0.898 µM) | 2.08 µg/mL (≈ 3.59 µM) | 4.17 µg/mL (≈ 7.2 µM) |  |  |  |  | 2.08 µg/mL |  |  |
| COC(=O)c1ccc(CNS(=O)(=O)N2CCN(/C(C=N)=C(\OCC3(C)CC3)C(=O)Nc3cccc(Cl)c3)CC2)cc1 | 530 nM | 0.13 µg/mL (≈ 0.215 µM) | 0.52 µg/mL (≈ 0.861 µM) |  |  |  |  |  |  |  |  |  |
| CC1(CO/C(C(=O)Nc2cccc(Cl)c2)=C(/C=N)N2CCN(S(=O)(=O)NCc3ccnc(N)c3)CC2)CC1 | 409 nM | 2.08 µg/mL (≈ 3.7 µM) | 8.35 µg/mL (≈ 14.9 µM) | 16.7 µg/mL (≈ 29.7 µM) | > 33 µg/mL |  | 50 ng·h/mL |  |  | 16.7 µg/mL |  |  |
| CC1(CO/C(C(=O)Nc2cccc(Cl)c2)=C(/C=N)N2CCN(S(=O)(=O)NCc3ccccc3)CC2)CC1 | 5310 nM | 2.08 µg/mL (≈ 3.81 µM) | > 33 µg/mL |  |  |  |  |  |  |  |  |  |
| CC1(CO/C(C(=O)Nc2cccc(Cl)c2)=C(/C=N)N2CCN(S(=O)(=O)NCc3cccnc3)CC2)CC1 | 201 nM | 2.08 µg/mL (≈ 3.8 µM) | 1.04 µg/mL (≈ 1.9 µM) |  |  |  |  |  |  |  |  |  |
| CC1(CO/C(C(=O)Nc2cccc(Cl)c2)=C(/C=N)N2CCN(S(=O)(=O)NCc3ccncc3)CC2)CC1 | 91.4 nM | 2.08 µg/mL (≈ 3.8 µM) | 0.52 µg/mL (≈ 0.95 µM) |  |  |  |  |  |  |  |  |  |
| COc1cc(CNS(=O)(=O)N2CCN(/C(C=N)=C(\OCC3(C)CC3)C(=O)Nc3cccc(Cl)c3)CC2)ccc1N | 157 nM | 0.52 µg/mL (≈ 0.88 µM) | 0.52 µg/mL (≈ 0.88 µM) | 1.04 µg/mL (≈ 1.76 µM) | 4.17 µg/mL (≈ 7.05 µM) |  | 860 ng·h/mL | 4.17 µg/mL | 12.6 µL/min/1e6 cells | 4.17 µg/mL | inactive | inactive |
| Cc1ccc(CNS(=O)(=O)N2CCN(/C(C=N)=C(\OC3CCC(F)C3)C(=O)Nc3cc(F)cc(F)c3)CC2)cc1N (mixture of isomers) |  |  |  |  |  |  | 2580 ng·h/mL |  |  |  |  |  |

More lines, main results first:

| IC50 (Beta-1,3-glucan synthase) | MIC (Nakaseomyces glabratus) | MIC (Candida albicans [1]) | MIC (Candida albicans [2]) | MIC (Candida albicans [3]) | hepatocyte CLint [4] | AUC(0-t) at 6 h [5] | MIC (Candida albicans [6]) | hepatocyte CLint [7] | Structure (SMILES) | minimal effective concentration (Aspergillus fumigatus) | Activity (Candida albicans [8]) | Activity (Candida albicans [9]) |
| --- | --- | --- | --- | --- | --- | --- | --- | --- | --- | --- | --- | --- |
| 1450 nM | 0.39 µg/mL (≈ 0.762 µM) | 10 µg/mL (≈ 19.5 µM) |  |  |  |  |  |  | CC(C)N(C)S(=O)(=O)N1CCN(/C(C=N)=C(\OC2CCCC2)C(=O)Nc2cccc(Cl)c2)CC1 |  |  |  |
| 361 nM | 0.03 µg/mL (≈ 0.0602 µM) | 0.52 µg/mL (≈ 1.04 µM) |  |  |  |  |  |  | CC(C)NS(=O)(=O)N1CCN(/C(C=N)=C(\OC2CCCC2)C(=O)Nc2cccc(Cl)c2)CC1 |  |  |  |
| 42100 nM | 16.7 µg/mL (≈ 36.6 µM) | > 33 µg/mL |  |  |  |  |  |  | N=C/C(=C(/OC1CCCC1)C(=O)Nc1cccc(Cl)c1)N1CCN(S(N)(=O)=O)CC1 |  |  |  |
| 1900 nM | 0.1 µg/mL (≈ 0.207 µM) | 6.25 µg/mL (≈ 12.9 µM) |  |  |  |  |  |  | CN(C)S(=O)(=O)N1CCN(/C(C=N)=C(\OC2CCCC2)C(=O)Nc2cccc(Cl)c2)CC1 |  |  |  |
| 2870 nM | 0.39 µg/mL (≈ 0.741 µM) | 25 µg/mL (≈ 47.5 µM) |  |  |  |  |  |  | N=C/C(=C(/OC1CCCC1)C(=O)Nc1cccc(Cl)c1)N1CCN(S(=O)(=O)N2CCOCC2)CC1 |  |  |  |
| 625 nM | 0.2 µg/mL (≈ 0.391 µM) | 6.25 µg/mL (≈ 12.2 µM) |  |  |  |  |  |  | CCN(CC)S(=O)(=O)N1CCN(/C(C=N)=C(\OC2CCCC2)C(=O)Nc2cccc(Cl)c2)CC1 |  |  |  |
| 117 nM | 0.16 µg/mL (≈ 0.301 µM) | > 25 µg/mL |  |  |  |  |  |  | N=C/C(=C(/OC1CCCC1)C(=O)Nc1cccc(Cl)c1)N1CCN(S(=O)(=O)Nc2ccccc2)CC1 |  |  |  |
| 87.9 nM | < 0.02 µg/mL | 0.03 µg/mL (≈ 0.0549 µM) |  |  |  |  |  |  | N=C/C(=C(/OC1CCCC1)C(=O)Nc1cccc(Cl)c1)N1CCN(S(=O)(=O)NCc2ccccc2)CC1 |  |  |  |
